US6737383B1, “Herbicidal oxadiazolidines” (priority 1999, dated 2004)

What was measured:
corn = assay: Test B pre/postemergence corn; type: in vivo, Zea mays
How it was run: (§1)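 Response is a visual 0-to-10 score relative to untreated plants, where 0 means no effect and 10 means complete control, taken twelve to sixteen days after application. Treatments went onto soil at planting and onto foliage of 1- to 4-leaf plants, using a surfactant-containing non-phytotoxic solvent.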

rape = assay: Test B pre/postemergence rape; type: in vivo, Brassica napus
How it was run: as §1

crabgrass = assay: Test B pre/postemergence crabgrass; type: in vivo, Digitaria sanguinalis
How it was run: as §1

giant foxtail = assay: Test B pre/postemergence giant foxtail; type: in vivo, Setaria faberii
How it was run: as §1

pigweed = assay: Test B pre/postemergence pigweed; type: in vivo, Amaranthus retroflexus
How it was run: as §1

wheat = assay: Test B pre/postemergence wheat; type: in vivo, Triticum aestivum
How it was run: as §1

blackgrass = assay: Test B pre/postemergence blackgrass; type: in vivo, Alopecurus myosuroides
How it was run: as §1

soybean = assay: Test B pre/postemergence soybean; type: in vivo, Glycine max
How it was run: as §1

cocklebur = assay: Test B pre/postemergence cocklebur; type: in vivo, Xanthium strumarium
How it was run: as §1

sugar beet = assay: Test B pre/postemergence sugar beet; type: in vivo, Beta vulgaris
How it was run: as §1

velvetleaf = assay: Test B pre/postemergence velvetleaf; type: in vivo, Abutilon theophrasti
How it was run: as §1

purple nutsedge = assay: Test B pre/postemergence purple nutsedge; type: in vivo, Cyperus rotundus
How it was run: as §1

bedstraw = assay: Test B pre/postemergence bedstraw; type: in vivo, Galium aparine
How it was run: as §1

wild oat = assay: Test B pre/postemergence wild oat; type: in vivo, Avena fatua
How it was run: as §1

morningglory = assay: Test B pre/postemergence morningglory; type: in vivo, Ipomoea hederacea
How it was run: as §1

surinam grass = assay: Test B pre/postemergence surinam grass; type: in vivo, Brachiaria decumbens
How it was run: as §1

[1] = Preemergence, Rate 62 g/ha, scale of 0 to 10 where 0 is no effect and 10 is complete control
[2] = Preemergence, Rate 250 g/ha, scale of 0 to 10 where 0 is no effect and 10 is complete control
[3] = Preemergence, Rate 500 g/ha, scale of 0 to 10 where 0 is no effect and 10 is complete control
[4] = Rate 62 g/ha, Postemergence, scale of 0 to 10 where 0 is no effect and 10 is complete control
[5] = Rate 125 g/ha, Postemergence, scale 0 to 10
[6] = Rate 125 g/ha, Preemergence, scale of 0 to 10 where 0 is no effect and 10 is complete control
[7] = Rate 500 g/ha, Postemergence, scale 0 to 10, 0 no effect, 10 complete control

CC(C)=CCCC(C)=CCn1c(=O)on(C(=O)N(c2ccc(F)cc2)C(C)C)c1=O [Compound 262]
4: Redroot pigweed plant response rating (pigweed; [7]) | Plant response rating, Blackgrass (blackgrass; [3]) | Soybean plant response rating (soybean; [7])
7: Plant response rating, Giant foxtail (giant foxtail; [3]) | Morningglory plant response rating (morningglory; [7])
0: Corn plant response rating (corn; [1]) | Corn plant response rating (corn; [2]) | Plant response rating, Corn (corn; [3]) | Corn plant response rating (corn; [4]) | Corn plant response rating (corn; [5]) | Corn plant response rating (corn; [6]) | Plant response rating (0 to 10; 0 is no effect, 10 is complete control), Corn (corn; Rate 250 g/ha, Postemergence) | Corn plant response rating (corn; [7]) | Rape plant response rating (rape; [1]) | Rape plant response rating (rape; [2]) | Plant response rating, Rape (rape; [3]) | Rape plant response rating (rape; [6]) | Plant response rating (0 to 10; 0 is no effect, 10 is complete control), Rape (rape; Rate 250 g/ha, Postemergence) | Rape plant response rating (rape; [7]) | Crabgrass plant response rating (crabgrass; [1]) | Plant response rating (0 to 10; 0 is no effect, 10 is complete control), Crabgrass (crabgrass; Rate 250 g/ha, Postemergence) | Crabgrass plant response rating (crabgrass; [7]) | Giant foxtail plant response rating (giant foxtail; [1]) | Plant response rating (0 to 10; 0 is no effect, 10 is complete control), Giant foxtail (giant foxtail; Rate 250 g/ha, Postemergence) | Giant foxtail plant response rating (giant foxtail; [7]) | Redroot pigweed plant response rating (pigweed; [1]) | Redroot pigweed plant response rating (pigweed; [2]) | Plant response rating, Redroot pigweed (pigweed; [3]) | Redroot pigweed plant response rating (pigweed; [6]) | Wheat plant response rating (wheat; [1]) | Wheat plant response rating (wheat; [2]) | Plant response rating, Wheat (wheat; [3]) | Wheat plant response rating (wheat; [6]) | Wheat plant response rating (wheat; [7]) | Blackgrass plant response rating (blackgrass; [1]) | Blackgrass plant response rating (blackgrass; [4]) | Blackgrass plant response rating (blackgrass; [5]) | Blackgrass plant response rating (blackgrass; [6]) | Plant response rating (0 to 10; 0 is no effect, 10 is complete control), Blackgrass (blackgrass; Rate 250 g/ha, Postemergence) | Blackgrass plant response rating (blackgrass; [7]) | Soybean plant response rating (soybean; [1]) | Soybean plant response rating (soybean; [2]) | Plant response rating, Soybean (soybean; [3]) | Soybean plant response rating (soybean; [6]) | Cocklebur plant response rating (cocklebur; [1]) | Cocklebur plant response rating (cocklebur; [2]) | Plant response rating, Cocklebur (cocklebur; [3]) | Cocklebur plant response rating (cocklebur; [4]) | Cocklebur plant response rating (cocklebur; [5]) | Cocklebur plant response rating (cocklebur; [6]) | Plant response rating (0 to 10; 0 is no effect, 10 is complete control), Cocklebur (cocklebur; Rate 250 g/ha, Postemergence) | Cocklebur plant response rating (cocklebur; [7]) | Sugarbeets plant response rating (sugar beet; [1]) | Sugarbeets plant response rating (sugar beet; [2]) | Plant response rating, Sugarbeets (sugar beet; [3]) | Sugarbeets plant response rating (sugar beet; [6]) | Sugarbeets plant response rating (sugar beet; [7]) | Velvetleaf plant response rating (velvetleaf; [1]) | Velvetleaf plant response rating (velvetleaf; [2]) | Plant response rating, Velvetleaf (velvetleaf; [3]) | Velvetleaf plant response rating (velvetleaf; [6]) | Nutsedge plant response rating (purple nutsedge; [1]) | Nutsedge plant response rating (purple nutsedge; [2]) | Plant response rating, Nutsedge (purple nutsedge; [3]) | Nutsedge plant response rating (purple nutsedge; [6]) | Plant response rating (0 to 10; 0 is no effect, 10 is complete control), Nutsedge (purple nutsedge; Rate 250 g/ha, Postemergence) | Nutsedge plant response rating (purple nutsedge; [7]) | Bedstraw plant response rating (bedstraw; [1]) | Bedstraw plant response rating (bedstraw; [2]) | Plant response rating, Bedstraw (bedstraw; [3]) | Bedstraw plant response rating (bedstraw; [4]) | Bedstraw plant response rating (bedstraw; [5]) | Bedstraw plant response rating (bedstraw; [6]) | Wild oats plant response rating (wild oat; [1]) | Wild oats plant response rating (wild oat; [2]) | Plant response rating, Wild oats (wild oat; [3]) | Wild oats plant response rating (wild oat; [6]) | Wild oats plant response rating (wild oat; [7]) | Morningglory plant response rating (morningglory; [1]) | Morningglory plant response rating (morningglory; [2]) | Plant response rating, Morningglory (morningglory; [3]) | Morningglory plant response rating (morningglory; [6]) | B. signalgrass plant response rating (surinam grass; [1]) | B. signalgrass plant response rating (surinam grass; [2]) | Plant response rating, B. signalgrass (surinam grass; [3]) | B. signalgrass plant response rating (surinam grass; [4]) | B. signalgrass plant response rating (surinam grass; Rate 125 g/ha, Postemergence, scale 0 (no effect) to 10 (complete control)) | B. signalgrass plant response rating (surinam grass; [6]) | Plant response rating (0 to 10; 0 is no effect, 10 is complete control), B. signalgrass (surinam grass; Rate 250 g/ha, Postemergence) | B. signalgrass plant response rating (surinam grass; [7])
5: Plant response rating (0 to 10; 0 is no effect, 10 is complete control), Morningglory (morningglory; Rate 250 g/ha, Postemergence)
2: Crabgrass plant response rating (crabgrass; [2]) | Crabgrass plant response rating (crabgrass; [6]) | Blackgrass plant response rating (blackgrass; [2]) | Velvetleaf plant response rating (velvetleaf; [7])
3: Plant response rating, Crabgrass (crabgrass; [3]) | Giant foxtail plant response rating (giant foxtail; [6]) | Plant response rating (0 to 10; 0 is no effect, 10 is complete control), Redroot pigweed (pigweed; Rate 250 g/ha, Postemergence)
